Paper doi:10.1101/2025.05.30.657074, “A covalent recognition strategy enables conspecific mate identification” (bioRxiv, 2025)

Columns and labels:
[1] = tested on: B. mori male moths; design: method as in PMID 24744736, PMID 22836825; conditions: conspecific male moths; cited from earlier work
[2] = molecular target: OR1_L340A (Bombyx mori, UniProt Q5WA61, L340A); test: GCaMP6 calcium flux assay, BmOR1/Orco mutant L340A; assay type: cell-based
From the text: (§1) The first insect pheromone system characterized at the molecular level is that of Bombyx mori, a moth long known to navigate towards its mate guided solely by pheromone cues with impressive navigation accuracy. Two PR/Orco complexes, BmOR1/BmOrco and BmOR3/BmOrco, have been linked to the behavioral responses to pheromones in B. mori (Figure 1A). The conspecific pheromone, bombykol, is detected through BmOR1/Orco and leads to sexual attraction. The heterospecific pheromone, bombykal, is sensed through BmOR3/Orco, and leads to suppression of mating behavior. We first characterized the extent to which both PR/Orco complexes are selective towards their cognate ligands. We used a previously established calcium flux functional assay where we co-transfected HEK293 cells with either BmOR1 or BmOR3, along with the coreceptor, BmOrco (here on referred to as Orco), and the fluorescent calcium reporter, GCaMP6 (Figure 1C). In this assay, ligand-activation of the heteromeric ion channel complexes by addition of either bombykol or bombykal leads to calcium influx, read out as GCaMP6 fluorescence changes that can be monitored in real-time and dose-dependent manner using a fluorescence plate reader. […]
(§2) HEK293T cells were maintained at 37°C with 5% carbon dioxide and grown in high glucose DMEM enhanced with 10% FBS and 1% GlutaMAX (Gibco). […] Cells were kept at 37°C for 18-20 hours before being used for fluorescence plate reading. […]
(§3) On the day of the GCaMP6 assay, Bravo (Agilent), a versatile liquid handler was used to prepare both the odorant plate and the assay plate (transfected cell plate) prior to the fluorescence readout using the FDSS/µcell kinetic plate Imager (Hamamatsu, C13299).
(§4) For the odorant plate, the DMSO dissolved stock solutions were diluted in 19.8 µL of Reading buffer (20 mM HEPES/NaOH (pH 7.4), 1× HBSS (Gibco), 3 mM Na2CO3, 1 mM MgSO4, and 5 mM CaCl2) to give a final concentration ranging from 3.16 nM to 1 mM with 1% DMSO. […]
(§5) The kinetics of the fluorescence change upon odorant addition were measured using the FDSS/µcell kinetic plate Imager (Hamamatsu, C13299). […]

[3] = molecular target: OR1_S60A (Bombyx mori, UniProt Q5WA61, S60A); test: GCaMP6 calcium flux assay, BmOR1/Orco mutant S60A; assay type: cell-based
OR1_S60A, sequence (Q7YT34 entry or part of it, stated change not applied): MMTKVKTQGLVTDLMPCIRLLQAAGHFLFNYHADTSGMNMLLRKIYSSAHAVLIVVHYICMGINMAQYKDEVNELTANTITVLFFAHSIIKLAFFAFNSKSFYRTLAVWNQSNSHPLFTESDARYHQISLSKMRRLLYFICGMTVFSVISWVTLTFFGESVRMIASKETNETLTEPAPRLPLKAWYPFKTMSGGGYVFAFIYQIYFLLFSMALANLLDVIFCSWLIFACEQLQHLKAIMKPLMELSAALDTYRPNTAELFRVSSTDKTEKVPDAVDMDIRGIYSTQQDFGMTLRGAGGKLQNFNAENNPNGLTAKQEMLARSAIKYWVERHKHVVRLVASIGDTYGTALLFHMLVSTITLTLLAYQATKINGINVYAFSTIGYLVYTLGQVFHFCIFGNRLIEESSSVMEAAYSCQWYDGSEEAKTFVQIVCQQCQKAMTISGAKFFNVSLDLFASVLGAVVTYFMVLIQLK
OR1_S60A, sequence (Q5WA61 entry or part of it S60A): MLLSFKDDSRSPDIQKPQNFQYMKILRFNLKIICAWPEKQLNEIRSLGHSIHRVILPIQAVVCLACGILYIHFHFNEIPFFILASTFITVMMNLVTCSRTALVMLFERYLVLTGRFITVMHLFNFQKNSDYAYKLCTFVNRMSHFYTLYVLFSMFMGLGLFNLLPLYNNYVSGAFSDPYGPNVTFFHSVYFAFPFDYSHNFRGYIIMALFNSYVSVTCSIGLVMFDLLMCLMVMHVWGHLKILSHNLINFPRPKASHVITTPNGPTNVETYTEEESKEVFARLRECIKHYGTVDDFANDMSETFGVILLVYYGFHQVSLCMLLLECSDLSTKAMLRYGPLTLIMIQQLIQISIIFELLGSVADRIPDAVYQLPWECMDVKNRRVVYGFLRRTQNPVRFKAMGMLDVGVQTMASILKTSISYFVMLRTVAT
From the text: as §1, §2, §3, §4, §5

[4] = molecular target: OR3_T91A (Bombyx mori, UniProt Q5FBE0, T91A); test: GCaMP6 calcium flux assay, BmOR3/Orco mutant T91A; assay type: cell-based
OR3_T91A, sequence (Q7YT34 entry or part of it, stated change not applied): as the sequence (Q7YT34 entry or part of it, stated change not applied) above
OR3_T91A, sequence (Q5FBE0 entry or part of it T91A): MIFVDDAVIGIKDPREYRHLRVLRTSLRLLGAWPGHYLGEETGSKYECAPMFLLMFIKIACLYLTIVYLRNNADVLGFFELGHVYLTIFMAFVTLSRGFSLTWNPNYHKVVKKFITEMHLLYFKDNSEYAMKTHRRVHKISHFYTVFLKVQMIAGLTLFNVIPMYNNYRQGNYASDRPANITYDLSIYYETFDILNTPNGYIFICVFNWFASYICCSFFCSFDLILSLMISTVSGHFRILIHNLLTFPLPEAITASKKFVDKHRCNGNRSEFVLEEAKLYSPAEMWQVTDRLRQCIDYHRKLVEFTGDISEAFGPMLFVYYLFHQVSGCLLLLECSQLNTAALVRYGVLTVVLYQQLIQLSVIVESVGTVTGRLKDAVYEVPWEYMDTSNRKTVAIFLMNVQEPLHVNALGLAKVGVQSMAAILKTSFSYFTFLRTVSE
From the text: as §1, §2, §3, §4, §5

[5] = molecular target: OR3_T91N (Bombyx mori, UniProt Q5FBE0, T91N); test: GCaMP6 calcium flux assay, BmOR3/Orco mutant T91N; assay type: cell-based
OR3_T91N, sequence (Q5FBE0 entry or part of it T91N): as the sequence (Q5FBE0 entry or part of it T91A) above, with A91N counted along it
OR3_T91N, sequence (Q7YT34 entry or part of it, stated change not applied, further chain): as the sequence (Q7YT34 entry or part of it, stated change not applied) above
From the text: as §1, §2, §3, §4, §5

[6] = tested on: OR1_F161A; test: GCaMP6 calcium flux assay, BmOR1/Orco mutant F161A; assay type: cell-based, Bombyx mori
From the text: as §1, with “We used a previously established calcium flux functional assay where we co-transfected HEK293 cells with either BmOR1 or BmOR3, along with the coreceptor, BmOrco (here on referred to as Orco), and the fluorescent calcium reporter, GCaMP6 (Figure 1C).” left out
as §2, §5

[7] = molecular target: OR3_K58S (Bombyx mori, UniProt Q5FBE0, K58S); test: GCaMP6 calcium flux assay, BmOR3/Orco mutant K58S; assay type: cell-based
OR3_K58S, sequence (Q5FBE0 entry or part of it K58S): as the sequence (Q5FBE0 entry or part of it T91A) above, with K58S, A91T counted along it
OR3_K58S, sequence (Q7YT34 entry or part of it, stated change not applied, further chain): as the sequence (Q7YT34 entry or part of it, stated change not applied) above
From the text: (§6) The first insect pheromone system characterized at the molecular level is that of Bombyx mori, a moth long known to navigate towards its mate guided solely by pheromone cues with impressive navigation accuracy. Two PR/Orco complexes, BmOR1/BmOrco and BmOR3/BmOrco, have been linked to the behavioral responses to pheromones in B. mori (Figure 1A). The conspecific pheromone, bombykol, is detected through BmOR1/Orco and leads to sexual attraction. The heterospecific pheromone, bombykal, is sensed through BmOR3/Orco, and leads to suppression of mating behavior. We first characterized the extent to which both PR/Orco complexes are selective towards their cognate ligands. We used a previously established calcium flux functional assay where we co-transfected HEK293 cells with either BmOR1 or BmOR3, along with the coreceptor, BmOrco (here on referred to as Orco), and the fluorescent calcium reporter, GCaMP6 (Figure 1C). In this assay, ligand-activation of the heteromeric ion channel complexes by addition of either bombykol or bombykal leads to calcium influx, read out as GCaMP6 fluorescence changes that can be monitored in real-time and dose-dependent manner using a fluorescence plate reader. […] But we also found both PR/Orco complexes to be somewhat promiscuous: both complexes are activated by their non-cognate pheromones (bombykal for BmOR1/Orco and bombykol for BmOR3/Orco) with a response that is ~10 fold smaller than their cognate pheromones. […] Instead, two complexes with reciprocal specificities enable an unequivocal response to bombykal and bombykol across all concentrations, ensuring the behavioral accuracy needed for mate selection.
(§7) The assay was performed similarly to method descriptions in previous studies.
(§8) All DNA constructs used in this assay were cloned into a modified pME18 vector that contains a SV40 promotor.
(§9) Each transfection condition (per well) contained a total of 300 ng of plasmids in 1:1:1 ratio of the GCaMP6, Orco, and the corresponding OR plasmid that was diluted in 4.8 uL of OptiMEM (Gibco) along with 0.1 uL of P3000. The mixture was incubated for 5 minutes and then further incubated for 20 minutes after being mixed with Lipofectamine 3000 (Invitrogen) diluted in OptiMEM. This mixture was scaled accordingly to batch transfect 50-100 wells per construct per plate.
(§10) HEK293T cells were maintained at 37°C with 5% carbon dioxide and grown in high glucose DMEM enhanced with 10% FBS and 1% GlutaMAX (Gibco). Cells were detached with TrypLE Express Enzyme and resuspended in FluoroBrite DMEM (Gibco) with 10% FBS and 1% GlutaMAX (Gibco) to a concentration of 5 × 10^5 cells/ml. Cells were combined with each transfection condition and added to 2x16 wells of a 384-well plate (Grenier CELLSTAR). Cells were kept at 37°C for 18-20 hours before being used for fluorescence plate reading.
(§11) Odorant plates were prepared using D300e (Hewlett Packard), a digital, non-contact dispenser. Briefly, stock solutions of bombykol and bombykal were prepared in DMSO and plated onto 384-plates (Greiner, Catalog #784201) in a titrating volume to obtain a concentration series ranging between 316 nM and 100 mM with a final volume of 0.2 µL.
(§12) The odorant plates were kept at −20 °C until usage.
as §3
(§13) For the odorant plate, the DMSO dissolved stock solutions were diluted in 19.8 µL of Reading buffer (20 mM HEPES/NaOH (pH 7.4), 1× HBSS (Gibco), 3 mM Na2CO3, 1 mM MgSO4, and 5 mM CaCl2) to give a final concentration ranging from 3.16 nM to 1 mM with 1% DMSO. For the cell plate, the FluoroBrite DMEM (Gibco) was exchanged out with the […]
as §5

[8] = molecular target: OR1_L342A (Bombyx mori, UniProt Q5WA61, L342A); test: GCaMP6 calcium flux assay, BmOR1/Orco mutant L342A; assay type: cell-based
OR1_L342A, sequence (Q7YT34 entry or part of it, stated change not applied): as above
OR1_L342A, sequence (Q5WA61 entry or part of it L342A): as the sequence (Q5WA61 entry or part of it S60A) above, with A60S, L342A counted along it
From the text: as §1, §2, §3, §4, §5

[9] = molecular target: OR1_M344A (Bombyx mori, UniProt Q5WA61, M344A); test: GCaMP6 calcium flux assay, BmOR1/Orco mutant M344A; assay type: cell-based
OR1_M344A, sequence (Q5WA61 entry or part of it M344A): as the sequence (Q5WA61 entry or part of it S60A) above, with A60S, M344A counted along it
OR1_M344A, sequence (Q7YT34 entry or part of it, stated change not applied, further chain): as the sequence (Q7YT34 entry or part of it, stated change not applied) above
From the text: as §1, §2, §3, §4, §5

[10] = molecular target: OR3_K58A (Bombyx mori, UniProt Q5FBE0, K58A); test: GCaMP6 calcium flux assay, BmOR3/Orco mutant K58A; assay type: cell-based
OR3_K58A, sequence (Q5FBE0 entry or part of it K58A): as the sequence (Q5FBE0 entry or part of it T91A) above, with K58A, A91T counted along it
OR3_K58A, sequence (Q7YT34 entry or part of it, stated change not applied, further chain): as the sequence (Q7YT34 entry or part of it, stated change not applied) above
From the text: as §6, §7, §8, §9, §10, §11, §12, §3, §13, §5

[11] = molecular target: OR3_K58Q (Bombyx mori, UniProt Q5FBE0, K58Q); test: GCaMP6 calcium flux assay, BmOR3/Orco mutant K58Q; assay type: cell-based
OR3_K58Q, sequence (Q5FBE0 entry or part of it K58Q): as the sequence (Q5FBE0 entry or part of it T91A) above, with K58Q, A91T counted along it
OR3_K58Q, sequence (Q7YT34 entry or part of it, stated change not applied, further chain): as the sequence (Q7YT34 entry or part of it, stated change not applied) above
From the text: as §6, §7, §8, §9, §10, §11, §12, §3, §13, §5

[12] = tested on: OR1_I343A; test: GCaMP6 calcium flux assay, BmOR1/Orco mutant I343A; assay type: cell-based, Bombyx mori
From the text: as §1, with “We used a previously established calcium flux functional assay where we co-transfected HEK293 cells with either BmOR1 or BmOR3, along with the coreceptor, BmOrco (here on referred to as Orco), and the fluorescent calcium reporter, GCaMP6 (Figure 1C).” left out
as §2, §5

[13] = molecular target: BmOR3/Orco (Bombyx mori, UniProt Q5FBE0); test: GCaMP6 calcium flux assay, wild-type BmOR3/Orco; assay type: cell-based
BmOR3/Orco, sequence (Q5FBE0 entry or part of it): as the sequence (Q5FBE0 entry or part of it T91A) above, with A91T counted along it
BmOR3/Orco, sequence (Q7YT34 entry or part of it, further chain): as the sequence (Q7YT34 entry or part of it, stated change not applied) above
From the text: as §6, §7, §8, §9, §10, §11, §12, §3, §13, §5

[14] = molecular target: OR1_N93A (Bombyx mori, UniProt Q5WA61, N93A); test: GCaMP6 calcium flux assay, BmOR1/Orco mutant N93A; assay type: cell-based
OR1_N93A, sequence (Q5WA61 entry or part of it N93A): as the sequence (Q5WA61 entry or part of it S60A) above, with A60S, N93A counted along it
OR1_N93A, sequence (Q7YT34 entry or part of it, stated change not applied, further chain): as the sequence (Q7YT34 entry or part of it, stated change not applied) above
From the text: as §1, §2, §3, §4, §5

[15] = molecular target: BmOR1/Orco (Bombyx mori, UniProt Q5WA61); test: GCaMP6 calcium flux assay, wild-type BmOR1/Orco; assay type: cell-based
BmOR1/Orco, sequence (Q7YT34 entry or part of it): as the sequence (Q7YT34 entry or part of it, stated change not applied) above
BmOR1/Orco, sequence (Q5WA61 entry or part of it): as the sequence (Q5WA61 entry or part of it S60A) above, with A60S counted along it
From the text: as §6, §7, §8, §9, §10, §11, §12, §3, §13, §5

[16] = molecular target: OR1_N93T (Bombyx mori, UniProt Q5WA61, N93T); test: GCaMP6 calcium flux assay, BmOR1/Orco mutant N93T; assay type: cell-based
OR1_N93T, sequence (Q5WA61 entry or part of it N93T): as the sequence (Q5WA61 entry or part of it S60A) above, with A60S, N93T counted along it
OR1_N93T, sequence (Q7YT34 entry or part of it, stated change not applied, further chain): as the sequence (Q7YT34 entry or part of it, stated change not applied) above
From the text: as §1, §2, §3, §4, §5

OR1_L340A, sequence (Q5WA61 entry or part of it L340A): as the sequence (Q5WA61 entry or part of it S60A) above, with A60S, L340A counted along it
OR1_L340A, sequence (Q7YT34 entry or part of it, stated change not applied, further chain): as the sequence (Q7YT34 entry or part of it, stated change not applied) above

CCC/C=C\C=C\CCCCCCCCCO [Bombykol, bombykol]
behavioral response [1]: aggressive attraction behavior
EC50 [2]: 2000 nM
Hill Coefficient (n± SE) ([2]; OR1_L340A): 2.0 ± 0.3
Max (ΔF/F ± SE) ([2]; OR1_L340A): 0.48 ± 0.08 ΔF/F
EC50 [3]: 501 nM
Hill Coefficient (n± SE) ([3]; OR1_S60A): 2.1 ± 0.3
Max (ΔF/F ± SE) ([3]; OR1_S60A): 1.1 ± 0.1 ΔF/F
EC50 [4]: 3980 nM
Hill Coefficient (n± SE) ([4]; OR3_T91A): 0.9 ± 0.3
Max (ΔF/F ± SE) ([4]; OR3_T91A): 0.31 ± 0.05 ΔF/F
EC50 [5]: 1000 nM
Hill Coefficient (n± SE) ([5]; OR3_T91N): 1.7 ± 0.2
Max (ΔF/F ± SE) ([5]; OR3_T91N): 0.64 ± 0.07 ΔF/F
Max (ΔF/F ± SE) [6]: 0.04 ± 0.02 ΔF/F
EC50 [7]: 3160 nM
Hill Coefficient (n± SE) ([7]; OR3_K58S): 1.2 ± 0.3
Max (ΔF/F ± SE) ([7]; OR3_K58S): 0.42 ± 0.07 ΔF/F
EC50 [8]: 794 nM
Hill Coefficient (n± SE) ([8]; OR1_L342A): 1.4 ± 0.2
Max (ΔF/F ± SE) ([8]; OR1_L342A): 0.87 ± 0.08 ΔF/F
EC50 [9]: 1000 nM
Hill Coefficient (n± SE) ([9]; OR1_M344A): 1.5 ± 0.3
Max (ΔF/F ± SE) ([9]; OR1_M344A): 0.84 ± 0.03 ΔF/F
EC50 [10]: 251 nM
Hill Coefficient (n± SE) ([10]; OR3_K58A): 15 ± 6
Max (ΔF/F ± SE) ([10]; OR3_K58A): 0.15 ± 0.06 ΔF/F
EC50 [11]: 794 nM
Hill Coefficient (n± SE) ([11]; OR3_K58Q): 5 ± 3
Max (ΔF/F ± SE) ([11]; OR3_K58Q): 0.66± 0.06 ΔF/F
Max (ΔF/F ± SE) [12]: 0.14 ± 0.01 ΔF/F
EC50 ([13]; EC50, HEK293 cells co-transfected with BmOR3, BmOrco, GCaMP6): 1300 nM
EC50 ([13]; Mean (-log EC50 ± SE), wild-type BmOR3/Orco): 1290 nM
response to non-cognate pheromone, fold smaller than cognate pheromone ([13]; bombykol vs cognate bombykal at BmOR3/Orco): ~ 10 fold
Hill Coefficient (n± SE) ([13]; wild-type BmOR3/Orco): 1.0 ± 0.1
Max (ΔF/F ± SE) ([13]; wild-type BmOR3/Orco, ΔF/F at highest ligand concentration): 0.61 ± 0.04 ΔF/F
EC50 [14]: 5010 nM
Hill Coefficient (n± SE) ([14]; OR1_N93A): 1.0 ± 0.3
Max (ΔF/F ± SE) ([14]; OR1_N93A): 0.63 ± 0.04 ΔF/F
EC50 ([15]; EC50, HEK293 cells co-transfected with BmOR1, BmOrco, GCaMP6): 270 nM
EC50 ([15]; Mean (-log EC50 ± SE), wild-type BmOR1/Orco): 269 nM
Hill Coefficient (n± SE) ([15]; wild-type BmOR1/Orco): 1.6 ± 0.1
Max (ΔF/F ± SE) ([15]; wild-type BmOR1/Orco, ΔF/F at highest ligand concentration): 0.98 ± 0.07 ΔF/F
EC50 [16]: 1000 nM
Hill Coefficient (n± SE) ([16]; OR1_N93T): 2.0 ± 0.3
Max (ΔF/F ± SE) ([16]; OR1_N93T): 1.02 ± 0.08 ΔF/F
